Experimental data: PubChem BioAssay (NCI)
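Growth conditions: 96-well plates. Treatment: test compound, 48 hours, 5 concentrations. Analysis: linear interpolation between bracketing concentrations; unreached endpoints set to highest concentration. The concentration for full growth arrest is given as TGI.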

Columns and labels:
Assay in all cases: NCI tumour cell line growth inhibition, 48 h
EKVX NSCLC = tested on: EKVX NSCLC
UACC-257 melanoma = tested on: UACC-257 melanoma
OVCAR-8 ovarian = tested on: OVCAR-8 ovarian
PC-3 prostate = tested on: PC-3 prostate
NCI-H226 lung = tested on: NCI-H226 lung
RPMI-8226 leukemia = tested on: RPMI-8226 leukemia
OVCAR-5 ovarian = tested on: OVCAR-5 ovarian
HT29 colon = tested on: HT29 colon
UACC-62 melanoma = tested on: UACC-62 melanoma
DU-145 prostate = tested on: DU-145 prostate
RXF 393 renal = tested on: RXF 393 renal
A549 NSCLC = tested on: A549 NSCLC

Compound | TGI (EKVX NSCLC) | TGI (UACC-257 melanoma) | TGI (OVCAR-8 ovarian) | TGI (PC-3 prostate) | TGI (NCI-H226 lung) | TGI (RPMI-8226 leukemia) | TGI (OVCAR-5 ovarian) | TGI (HT29 colon) | TGI (UACC-62 melanoma) | TGI (DU-145 prostate) | TGI (RXF 393 renal) | TGI (A549 NSCLC)
COC(=O)c1ccc(/C=C/C2=CC(=O)C=CC2=O)cc1 | 47.5 µM | 34.8 µM | 61.5 µM | 60.6 µM | 40.2 µM | 4.49 µM | 46 µM | 48.9 µM | 40.2 µM | > 100 µM | 42.2 µM | > 100 µM
O=[N+]([O-])c1ccccc1S(=O)(=O)N1CCCc2cc(Cl)ccc21 | > 100 µM | > 96.1 µM | > 100 µM | > 100 µM | > 100 µM | > 100 µM | > 100 µM | 51.3 µM | > 100 µM | > 100 µM | 74.1 µM | > 100 µM
CCOC(=O)c1c(OCC)[nH]c(=O)c(C(c2ccc(F)cc2)c2c(O)c(C(=O)OCC)c(OCC)[nH]c2=O)c1O | 33.2 µM | 37.3 µM | 28.1 µM | 34.6 µM | 26.1 µM | 58.3 µM | > 100 µM | 31.7 µM | 30.3 µM | 24.3 µM | 23 µM | 29.3 µM
CCC1=C(C)C2=NC1=CC1=NC(=C(CC)/C1=C/O)C=C1N=C3C(=C1C)C(=O)C(C(=O)OC)C3=C1NC(=C2)C(C)C1CCC(=O)OC (stereo unspecified) | > 100 µM | > 100 µM | > 100 µM | > 100 µM | > 100 µM | > 100 µM | > 100 µM | > 100 µM | > 100 µM | > 100 µM | > 100 µM | > 100 µM
Nc1nc(Cl)cc(NCC2(CO)CC(CCCCc3ccccc3)C2)n1 (stereo unspecified) | > 100 µM | > 100 µM | > 100 µM | > 100 µM | > 100 µM | 86.2 µM | > 100 µM | 35.3 µM | > 100 µM | > 100 µM | > 100 µM | > 100 µM
NC12c3c4cccc3Oc3cccc(c31)Oc1cccc(c12)O4 | > 50 µM | > 50 µM | > 50 µM | > 50 µM | > 50 µM | > 50 µM | > 50 µM | > 50 µM | > 50 µM | > 50 µM | > 50 µM | > 50 µM
O=C(O)CCCN1CCCCC1 | > 100 µM | > 100 µM | > 100 µM | > 100 µM | > 100 µM | > 100 µM | > 100 µM | > 100 µM | > 100 µM | > 100 µM | > 100 µM | > 100 µM
CC(=O)NC1C(OCC(=O)NC(C)C(=O)NC(CCC(=O)NCCCCCNc2ccc([N+](=O)[O-])c3[nH]c4ccccc4c(=O)c23)C(N)=O)C(O)C(CO)OC1(C)OCc1ccccc1 (stereo unspecified) | > 50 µM | > 50 µM | > 50 µM | > 50 µM | > 50 µM | 36.6 µM | > 50 µM | > 50 µM | > 50 µM | > 50 µM | 19.5 µM | > 50 µM
